Where two headings read alike, the source gives them in different places.
Assays:
Solubility in toluene = format: physicochemical; details: for Solubility in Toluene: 1 g in 5 ml toluene, ultrasonic shaking 50° C. 10 min, then room temperature 30 min, filtered; for residue (solubility measurement in toluene): residue behind the printed solubility
Method: In a 20 ml test tube were placed 1 g of a naphthalocyanine compound and 5 ml of toluene. After the tube was tightly stoppered, the content was subjected to ultrasonic shaking at 50° C. for 10 min. Then, the tube was allowed to stand at room temperature for 30 min. and the content was filtered. The filtrate was concentrated to dryness. The solubility of the naphthalocyanine in toluene was calculated using the following equation. [formula] R1, R2, and R3 and R4 of naphthalocyanine compounds of the present invention can bond to 6 to 7 positions of all naphthalene nuclei of naphthalocyanine. Each of these groups can be a mixed group.

[1] = Near infrared absorption spectrum in toluene (largest absorption peak, absorptivity coefficient); format: physicochemical
Source text: It is to be noted that the naphthalocyanine compounds according to the present invention are not restricted to the compounds shown in Table 2.
Near infrared absorption spectrum for toluene solution: […]

| Solubility in Toluene (Solubility in toluene) [%] | Absorptivity coefficient (log ε) [1] | Wavelength at largest absorption peak [1] [nm] | residue (solubility measurement in toluene) (Solubility in toluene) [g] | Absorptivity coefficient (log ε) ([1]; listed as tert-amyl Cu) | Substance | Solubility in organic solvents (in words) (Solubility in toluene; organic solvents, compared with tert-butyl analogue or in general) |
| --- | --- | --- | --- | --- | --- | --- |
| 2 |  |  |  |  | tetra-6-tert-butylvanadylnaphthalocyanine [reference compound] | much lower solubility in organic solvents |
| 6 | 5.37 | 808 | 0.6 |  | tetra-tert-amylvanadylnaphthalocyanine [Example 1] |  |
| 11 | 5.27 | 809 |  |  | tetra-tert-heptylvanadylnaphthalocyanine [Example 5] |  |
| 7 |  | 771 |  | 5.24 | copper tetra-tert-amylnaphthalocyanine [Example 2] |  |
| 7 | 5.09 | 805 |  |  | Indium tetra-tert, sec-mixed amylnaphthalocyanine [Example 4] |  |
| 7 | 5.32 | 809 | 0.6 |  | tetra-tert, sec-mixed amylvanadylnaphthalocyanine [Example 3] |  |

Source: patent USRE34480E, “Naphthalocyanine compounds” (Yamamoto Kagaku Gosei Co., Ltd., priority 1983, dated 1993)
